Assays:
[1] = system: EMT6 tumor-bearing model mice; test: Biodistribution in tumor and organs of tumor-bearing mouse (Example 14); type: in vivo, mouse (Balb/c nu/nu); conditions: mean
Experimental: The biodistribution of compounds 1 to 3 and [^18F]FMISO in a tumor and each of the organs of a tumor-bearing mouse was measured.
Tumor-bearing model mice used in this experiment were the same as those prepared in Example 10, and 3 or 4 cases that had attained a tumor volume of 200 to 400 mm^3 were selected from each group. The tumor-bearing model mouse was placed under isoflurane anesthesia, pimonidazole that is a hypoxic marker, was administered via a tail vein, and at 10 minutes thereafter, the respective labeled compound was administered. The tumor-bearing model mouse was sacrificed at 60 minutes and 120 minutes after administration. All of the tumor-bearing model mice were sacrificed by blood-letting from the abdominal aorta or by cardiocentesis, and dissection was carried out immediately thereafter. Other than the tumor, the blood, heart, lung, stomach, liver, gallbladder, kidney, small intestine and large intestine, muscle, and urine were sampled, and the other tissues were defined as the remaining whole body. After the weight of each tissue sampled was measured, the amount of radioactivity of the tissue was measured using a gamma counter, and the biodistribution of each of the labeled compounds was compared by converting it into % ID/g (% injection dose/g organ) of each tissue.
In order to examine a hypoxic state within the tumor, immunohistochemical staining of the sample tumor was carried out so as to ascertain whether or not the interior of the tumor was hypoxic. The sampled tumor was fixed using a 20% formalin buffer, and a paraffin block was prepared using an automatic paraffin-embedding apparatus (model: VIP-5-Jr-J0, Sakura Finetek). A slice (thickness: 3 μm) was prepared by means of a microtome (model: Tissue-Tek Feather Trustome, Sakura Finetek). Immunohistochemical staining was carried out by the same method as in Example 12.

[2] = system: hypoxic region of EMT6 tumor (pimonidazole-positive site); test: Localization of accumulation within tumor by autoradiography versus pimonidazole immunohistochemical staining; type: in vivo, mouse (Balb/c nu/nu); conditions: autoradiography and immunohistochemical staining of the same tumor section
Experimental: In order to evaluate whether or not the compound related to the present invention could visualize a hypoxic region of a tumor, the following experiment was carried out using compounds 1 to 3 and [^18F]FMISO.
Localization of accumulation of each of the labeled compounds within a tumor was confirmed by autoradiography. After PET imaging of a tumor-bearing model mouse prepared by the method of […] was completed, it was sacrificed by blood-letting by cardiocentesis, immediately thereafter the tumor was sampled, and tissue sections (thickness: 10 μm) were prepared using a cryostat (model: CM3050, manufactured by Leica). […] After exposing an imaging plate to this tumor tissue section for 8 to 10 hours, an image was captured using a bioimaging analyzer (model: BAS-2500, manufactured by FUJIFILM). The image thus captured was subjected to image analysis using image analysis software.
Separately, as a method for confirming a hypoxic region within a tumor, the same section after decay of radioactivity was subjected to immunohistochemical staining using pimonidazole that is a hypoxic marker, by the following procedure. […]

[3] = system: mouse-derived breast cancer cell line (EMT6) tumor-bearing model mice; test: Measurement of SUV within tumor and calculation of tumor/normal tissue ratio (Example 11); conditions: 60 minutes after administration
Experimental: The tumor-bearing model mouse thus prepared was placed under isoflurane anesthesia, and about 20 MBq of these sample solutions was administered via a tail vein. static imaging was carried out using a PET system for animals (model: eXplore Vista, manufactured by GE) at 60 minutes after administration. […] Data thus collected were reconstituted by the OSEM method to thus form an image, and a coronal tomographic image and an axial tomographic image were formed using image analysis software.
The maximum value for SUV within the tumor was measured using the axial tomographic images acquired in the Example 10. For all slice planes of an axial tomographic image where the tumor was visualized, a region of interest (hereinafter, called an ROI) was set for the entire tumor and measured. The axial tomographic image was formed from 61 slice planes, and the SUV that was the highest among the measured slice planes was defined as a maximum value for SUV 60 minutes after administration (SUV maximum value in tumor). […] The average value for signal intensity within the ROI was determined, and the average value for values measured for the slice planes was defined as the average value for SUV in normal tissue. The tumor/normal tissue ratio was calculated using the following equation (1) and used as a […] indicator with respect to contrast between the tumor and normal tissue.

[4] = system: hypoxic region of EMT6 tumor (pimonidazole-positive area); test: Correlation between autoradiographic signal intensity (PSL value) and pimonidazole-positive area (Example 13); type: in vivo, mouse (Balb/c nu/nu); conditions: tumor tissue sections after PET imaging
Experimental: In order to evaluate whether or not the compound related to the present invention can quantitatively visualize a hypoxic region of a tumor, the following experiment was carried out using compounds 1 to 3 and [^18F]FMISO.
Using a microscope system (model: BZ-9000, Keyence Corporation) a high magnification image of a pimonidazole-positive site was acquired using the entire image of a pathology image obtained by immunohistochemical staining in the Example 12 and a 10× objective lens. The high magnification image was formed with respect to a randomly selected image region. At the same time the image acquisition site was recorded as a navigation image by use of the navigation function of the microscope system. The acquired high magnification image was subjected to image processing, and a pimonidazole-positive area present in the high magnification image was determined.
The autoradiographic image and the stained image of each labeled compound used were those acquired in the Example 12. The resolution of the navigation image was made to match the resolution of the autoradiographic image, and the geometrical positions of two images were aligned using image analysis software.
In the autoradiographic image, an ROI was set for the site that coincided with the high magnification image acquisition site, and the PSL value (Photo-Stimulated Luminescence value) of the ROI was determined. Furthermore, an ROI was set for a site of the same image that contained no sample, and the PSL value thereof was defined as the background. The PSL value of the background was subtracted from the PSL value of the high magnification image acquisition site to obtain the net PSL value. The hypoxic marker pimonidazole-positive area was plotted on the abscissa and the PSL value in the autoradiographic image on the ordinate, and the correlation factor was determined. This series of operations was carried out for each of the labeled compounds.

[5] = 60 minutes after administration
[6] = 120 minutes after administration

O=[N+]([O-])c1nccn1CC(O)C[18F] (centres unmarked) [[^18F]FMISO, [^18F]fluoromisonidazole, reference compound]
Blood [1, 5]: 4.45 % ID/g
Gall bladder [1, 5]: 12.92 % ID/g
Heart [1, 5]: 5.12 % ID/g
Kidney [1, 5]: 8.52 % ID/g
Large intestine [1, 5]: 13.76 % ID/g
Liver [1, 5]: 5.84 % ID/g
Lung [1, 5]: 4.41 % ID/g
Muscle [1, 5]: 3.80 % ID/g
Small intestine [1, 5]: 5.76 % ID/g
Stomach [1, 5]: 4.17 % ID/g
T/B (tumor/blood ratio) [1, 5]: 1.06
T/M (tumor/muscle ratio) [1, 5]: 1.24
Tumor [1, 5]: 4.71 % ID/g
Urine [1, 5]: 34.98 % ID
Blood [1, 6]: 2.26 % ID/g
Gall bladder [1, 6]: 43.43 % ID/g
Heart [1, 6]: 3.33 % ID/g
Kidney [1, 6]: 3.89 % ID/g
Large intestine [1, 6]: 21.16 % ID/g
Liver [1, 6]: 3.85 % ID/g
Lung [1, 6]: 2.69 % ID/g
Muscle [1, 6]: 2.29 % ID/g
Small intestine [1, 6]: 4.63 % ID/g
Stomach [1, 6]: 1.85 % ID/g
T/B (tumor/blood ratio) [1, 6]: 1.91
T/M (tumor/muscle ratio) [1, 6]: 1.88
Tumor [1, 6]: 4.28 % ID/g
Urine [1, 6]: 41.45 % ID
Coincidence of accumulation site with localization of pimonidazole (hypoxic marker) [2]: did not visually coincide
SUV maximum value (in tumor) ([3]; about 20 MBq via tail vein, axial PET image, ROI entire tumor): 0.98
Tumor/normal tissue ratio ([3]; SUV maximum in tumor versus average SUV of left body side (lung and muscle)): 2.03
Correlation coefficient (pimonidazole-positive area vs PSL value in autoradiographic image) [4]: 0.55

— patent publication US9107964B2, “Radioactive fluorine-labeled compound” (NIHON MEDI-PHYSICS CO., LTD., priority 2011, dated 2015)
